The text below walks through data of ChEMBL document CHEMBL3046126, “Synthesis and Herbicidal Activity of New Oxazolidinedione Derivatives” (J Pestic Sci, 1999).

One data set concerns Ammannia multiflora. Description: Early post-emergence herbicidal activity against Ammannia multiflora assessed as phytotoxic weed control visual ratings at 50 kg ai/ha measured after 14 days post treatment under flooded conditions. The data set is classed as functional.
In data set [1] the test system is Echinochloa crus-galli. Kind of data set: Early post-emergence herbicidal activity against Echinochloa crus-galli (barnyard grass) assessed as phytotoxic weed control visual ratings at 50 kg ai/ha measured after 14 days post treatment under flooded conditions. It is filed as functional.
Data set [2] deals with Pontederia vaginalis. Description: Early post-emergence herbicidal activity against Monochoria vaginalis assessed as phytotoxic weed control visual ratings at 50 kg ai/ha measured after 14 days post treatment under flooded conditions. The data set is classed as functional.
Data set [3] deals with Oryza sativa. Kind of data set: Post-emergence phytotoxicity against Oryza sativa cv. Koshihikari (rice) assessed as phytotoxic crop injury visual ratings measured after 14 days post treatment. The data set is classed as organism-based. Conditions: in vivo, 336 h.
For a further data set, the system named is Digitaria ciliaris. Description: Pre-emergence herbicidal activity against Digitaria ciliaris assessed as phytotoxic weed control visual ratings at 500 g ai/ha measured after 14 days post treatment under upland field conditions. It is filed as functional.
The subject of data set [4] is Rotala indica. Kind of data set: Pre-emergence herbicidal activity against Rotala indica assessed as phytotoxic weed control visual ratings at 25 g ai/ha measured after 14 days post treatment under flooded conditions. It is filed as functional.
The subject of data set [5] is Echinochloa oryzicola. Kind of data set: Pre-emergence herbicidal activity against Echinochloa oryzicola assessed as phytotoxic weed control visual ratings at 25 g ai/ha measured after 14 days post treatment under flooded conditions. It is filed as functional.
Data set [6] deals with Oryza sativa. Kind of data set: Pre-emergence phytotoxicity against Oryza sativa cv. Koshihikari (rice) assessed as phytotoxic crop injury visual ratings measured after 14 days post treatment. It is filed as organism-based. Conditions: in vivo, 336 h.
Another data set concerns Amaranthus viridis. Kind of data set: Pre-emergence herbicidal activity against Amaranthus viridis assessed as phytotoxic weed control visual ratings at 500 g ai/ha measured after 14 days post treatment under upland field conditions. The data set is classed as functional.
The subject of data set [7] is Pontederia vaginalis. Kind of data set: Pre-emergence herbicidal activity against Monochoria vaginalis assessed as phytotoxic weed control visual ratings at 25 g ai/ha measured after 14 days post treatment under flooded conditions. The data set is classed as functional.
Another data set deals with Zea mays. Kind of data set: Pre-emergence phytotoxicity against Zea mays (maize) assessed as phytotoxic crop injury visual ratings at 500 g ai/ha measured after 14 days post treatment under upland field conditions. The data set is classed as organism-based. As to conditions: in vivo, other, 336 h.
Data set [8] concerns Cyperus difformis. Kind of data set: Pre-emergence herbicidal activity against Cyperus difformis assessed as phytotoxic weed control visual ratings at 25 g ai/ha measured after 14 days post treatment under flooded conditions. It is filed as functional.
Data set [9] can be described thus: Selectivity index, ratio of ED10 for Oryza sativa to ED90 for Echinochloa oryzicola by pre-emergence exposure method.
Data set [10] has as its system Oryza sativa. Kind of data set: Pre-emergence phytotoxicity against Oryza sativa cv. Koshihikari (rice) assessed as phytotoxic crop injury visual ratings at 25 g ai/ha measured after 14 days post treatment under flooded conditions. It is filed as organism-based. As to conditions: in vivo, other, 336 h.
A short description of data set [11]: Selectivity index, ratio of ED10 for Oryza sativa to ED90 for Echinochloa oryzicola by post-emergence exposure method.
In data set [12] the test system is Echinochloa crus-galli. Description: Pre-emergence herbicidal activity against Echinochloa crus-galli (barnyard grass) assessed as phytotoxic weed control visual ratings at 500 g ai/ha measured after 14 days post treatment under upland field conditions. It is filed as functional.
For data set [13], the system named is Echinochloa oryzicola. Kind of data set: Pre-emergence herbicidal activity against Echinochloa oryzicola assessed as phytotoxic weed control visual ratings measured after 14 days post treatment. It is filed as functional.
The subject of data set [14] is Lindernia procumbens. Kind of data set: Pre-emergence herbicidal activity against Lindernia procumbens assessed as phytotoxic weed control visual ratings at 25 g ai/ha measured after 14 days post treatment under flooded conditions. It is filed as functional.
For data set [15], the system named is Schoenoplectiella juncoides. Description: Pre-emergence herbicidal activity against Schoenoplectiella juncoides assessed as phytotoxic weed control visual ratings at 25 g ai/ha measured after 14 days post treatment under flooded conditions. It is filed as functional.
The test system of data set [16] is Elatine triandra. Description: Pre-emergence herbicidal activity against Elatine triandra assessed as phytotoxic weed control visual ratings at 25 g ai/ha measured after 14 days post treatment under flooded conditions. The data set is classed as functional.
The test system of data set [17] is Echinochloa oryzicola. Kind of data set: Post-emergence herbicidal activity against Echinochloa oryzicola assessed as phytotoxic weed control visual ratings measured after 14 days post treatment. The data set is classed as functional.
A further data set has as its system Chenopodium album. Kind of data set: Pre-emergence herbicidal activity against Chenopodium album assessed as phytotoxic weed control visual ratings at 500 g ai/ha measured after 14 days post treatment under upland field conditions. It is filed as functional.
Data set [18] relates to Schoenoplectiella juncoides. Description: Pre-emergence herbicidal activity against Schoenoplectiella juncoides assessed as phytotoxic weed control visual ratings at 1.25 kg ai/ha measured after 14 days post treatment under flooded conditions. It is filed as functional.
For data set [19], the system named is Cyperus difformis. Kind of data set: Pre-emergence herbicidal activity against Cyperus difformis assessed as phytotoxic weed control visual ratings at 1.25 kg ai/ha measured after 14 days post treatment under flooded conditions. It is filed as functional.
In data set [20] the test system is Elatine triandra. Kind of data set: Pre-emergence herbicidal activity against Elatine triandra assessed as phytotoxic weed control visual ratings at 1.25 kg ai/ha measured after 14 days post treatment under flooded conditions. The data set is classed as functional.
The test system of data set [21] is Schoenoplectiella juncoides. Description: Pre-emergence herbicidal activity against Schoenoplectiella juncoides assessed as phytotoxic weed control visual ratings at 2.5 kg ai/ha measured after 14 days post treatment under flooded conditions. The data set is classed as functional.
The subject of data set [22] is Pontederia vaginalis. Kind of data set: Pre-emergence herbicidal activity against Monochoria vaginalis assessed as phytotoxic weed control visual ratings at 2.5 kg ai/ha measured after 14 days post treatment under flooded conditions. The data set is classed as functional.
In data set [23] the test system is Elatine triandra. Kind of data set: Pre-emergence herbicidal activity against Elatine triandra assessed as phytotoxic weed control visual ratings at 2.5 kg ai/ha measured after 14 days post treatment under flooded conditions. It is filed as functional.
The test system of data set [24] is Lindernia procumbens. Kind of data set: Pre-emergence herbicidal activity against Lindernia procumbens assessed as phytotoxic weed control visual ratings at 2.5 kg ai/ha measured after 14 days post treatment under flooded conditions. It is filed as functional.
Data set [25] deals with Oryza sativa. Description: Pre-emergence phytotoxicity against Oryza sativa cv. Koshihikari (rice) assessed as phytotoxic crop injury visual ratings at 2.5 kg ai/ha measured after 14 days post treatment under flooded conditions. It is filed as organism-based. As to conditions: in vivo, other, 336 h.
The subject of data set [26] is Rotala indica. Description: Pre-emergence herbicidal activity against Rotala indica assessed as phytotoxic weed control visual ratings at 1.25 kg ai/ha measured after 14 days post treatment under flooded conditions. It is filed as functional.
For data set [27], the system named is Pontederia vaginalis. Description: Pre-emergence herbicidal activity against Monochoria vaginalis assessed as phytotoxic weed control visual ratings at 1.25 kg ai/ha measured after 14 days post treatment under flooded conditions. The data set is classed as functional.
The test system of data set [28] is Oryza sativa. Kind of data set: Pre-emergence phytotoxicity against Oryza sativa cv. Koshihikari (rice) assessed as induction of leaf sheath browning at 2.5 kg ai/ha measured after 14 days post treatment under flooded conditions. The data set is classed as organism-based. Conditions: in vivo, other, 336 h.
For data set [29], the system named is Rotala indica. Description: Pre-emergence herbicidal activity against Rotala indica assessed as phytotoxic weed control visual ratings at 2.5 kg ai/ha measured after 14 days post treatment under flooded conditions. The data set is classed as functional.
The test system of data set [30] is Lindernia procumbens. Kind of data set: Pre-emergence herbicidal activity against Lindernia procumbens assessed as phytotoxic weed control visual ratings at 1.25 kg ai/ha measured after 14 days post treatment under flooded conditions. It is filed as functional.
Data set [31] relates to Cyperus difformis. Description: Pre-emergence herbicidal activity against Cyperus difformis assessed as phytotoxic weed control visual ratings at 2.5 kg ai/ha measured after 14 days post treatment under flooded conditions. The data set is classed as functional.
In data set [32] the test system is Oryza sativa. Kind of data set: Pre-emergence phytotoxicity against Oryza sativa cv. Koshihikari (rice) assessed as phytotoxic crop injury visual ratings at 1.25 kg ai/ha measured after 14 days post treatment under flooded conditions. As to conditions: in vivo, other, 336 h. The data set is classed as organism-based.
Data set [33] relates to Echinochloa oryzicola. Kind of data set: Pre-emergence herbicidal activity against Echinochloa oryzicola assessed as phytotoxic weed control visual ratings at 1.25 kg ai/ha measured after 14 days post treatment under flooded conditions. It is filed as functional.
Data set [34] concerns Echinochloa oryzicola. Description: Pre-emergence herbicidal activity against Echinochloa oryzicola assessed as phytotoxic weed control visual ratings at 2.5 kg ai/ha measured after 14 days post treatment under flooded conditions. The data set is classed as functional.

Consider `C#CCOc1cc(N2C(=O)OC(=C(C)C)C2=O)c(Cl)cc1Cl`, for which the Phytotoxicity with Ammannia multiflora was 90%; with Echinochloa crus-galli [1] it was 90%; in the data set with Pontederia vaginalis [2], 100%.
For `C#CCOc1cc(N2C(=O)OC(=C(C)C)C2=O)c(F)cc1Cl`, the Phytotoxicity in the data set on Ammannia multiflora, in the data set with Digitaria ciliaris, in the data set on Rotala indica [4], in the data set with Echinochloa crus-galli [1], in the data set on Echinochloa oryzicola [5] and in the data set with Amaranthus viridis was 100% in each case. In addition, the Phytotoxicity is reported as 100% with Pontederia vaginalis [7]; 10% with Zea mays; 100% in the data set on Cyperus difformis [8]; 30% in the data set on Oryza sativa [10]; 80% in the data set on Echinochloa crus-galli [12]; 100% with Lindernia procumbens [14]. In addition, the Phytotoxicity (with Pontederia vaginalis [2]; in [15]; with Elatine triandra [16]; with Chenopodium album) was 100% throughout. The ED10 with Oryza sativa [3] was 25 gAi/ha; with Oryza sativa [6] it was 6.25 gAi/ha. For the same compound, the Selectivity Index in data set [9] and in data set [11] was 2 in each case. The ED90 with Echinochloa oryzicola [13] is given as 3.13 gAi/ha; with Echinochloa oryzicola [17], 12.5 gAi/ha.
Regarding `CC(C)=C1OC(=O)N(c2ccc(Cl)cc2)C1=O`, the Phytotoxicity (in data set [18]; in the data set with Cyperus difformis [19]; with Elatine triandra [20]; in [21]; in the data set on Pontederia vaginalis [22]; with Elatine triandra [23]) was 100% in each case. The Phytotoxicity is 100% with Lindernia procumbens [24]; 30% in the data set with Oryza sativa [25]; 100% in the data set with Rotala indica [26]; 100% in the data set on Pontederia vaginalis [27]; 100% with Rotala indica [29]; 100% in the data set with Lindernia procumbens [30]. The Phytotoxicity in the data set on Cyperus difformis [31] was 100%; with Oryza sativa [32] it was 10%; in the data set on Echinochloa oryzicola [33], 90%; in the data set on Echinochloa oryzicola [34], 100%. In addition, in the data set on Oryza sativa [28], the Activity entry is recorded as “Toxic”.
`C#CCOc1cc(N2C(=O)OC(=C(C)C)C2=O)c(F)cc1Br`: the Phytotoxicity with Ammannia multiflora is 100%; with Echinochloa crus-galli [1], 80%; in the data set on Pontederia vaginalis [2], 100%.
With `C#CCSc1cc(N2C(=O)OC(=C(C)C)C2=O)c(F)cc1Cl`, the ED10 with Oryza sativa [3] is reported as 200 gAi/ha; in the data set with Oryza sativa [6], 50 gAi/ha. The Phytotoxicity was 30% with Digitaria ciliaris; 100% in the data set with Rotala indica [4]; 100% in the data set on Echinochloa oryzicola [5]; 100% in the data set on Amaranthus viridis; 100% in the data set on Pontederia vaginalis [7]; 0% with Zea mays. Besides, the Phytotoxicity in the data set with Cyperus difformis [8] is 100%; with Oryza sativa [10], 0%; with Echinochloa crus-galli [12] it was 50%; with Lindernia procumbens [14], 100%; in data set [15], 100%; in the data set on Elatine triandra [16], 100%. For the same compound, the Phytotoxicity in the data set with Chenopodium album is 100%. Also, the Selectivity Index in [9] came to 4; in data set [11], 2. Further, the ED90 with Echinochloa oryzicola [13] was found to be 12.5 gAi/ha; in the data set with Echinochloa oryzicola [17] it was 100 gAi/ha.
Take `CC(C)=C1OC(=O)N(c2ccc(Cl)c(Cl)c2)C1=O`: the Phytotoxicity in [21] is recorded as 80%; with Pontederia vaginalis [22], 80%; in the data set on Elatine triandra [23] it was 100%; in the data set on Lindernia procumbens [24], 100%; in the data set with Oryza sativa [25], 10%; with Rotala indica [29] it was 100%. In addition, the Phytotoxicity with Cyperus difformis [31] came to 100%; with Echinochloa oryzicola [34], 10%. In addition, the Activity entry with Oryza sativa [28] is “Toxic”.
On to `CC(C)=C1OC(=O)N(c2ccc(Cl)cc2Cl)C1=O`, for which the Phytotoxicity in data set [21] amounted to 100%; in the data set with Pontederia vaginalis [22], 100%; in the data set with Elatine triandra [23], 100%; in the data set on Lindernia procumbens [24] it was 100%; with Oryza sativa [25] it was 20%; in the data set on Rotala indica [29], 100%. Moreover, the Phytotoxicity in the data set on Cyperus difformis [31] and with Echinochloa oryzicola [34] was 100% throughout. Further, the Activity entry in the data set on Oryza sativa [28] is listed as “Toxic”.
